Key:
Conditions in all cases: Compound concentration 10 µM
[1] = molecular target: T1, Alpha-2A adrenergic receptor (Homo sapiens) (UniProt P08913)
T1 sequence (whole entry): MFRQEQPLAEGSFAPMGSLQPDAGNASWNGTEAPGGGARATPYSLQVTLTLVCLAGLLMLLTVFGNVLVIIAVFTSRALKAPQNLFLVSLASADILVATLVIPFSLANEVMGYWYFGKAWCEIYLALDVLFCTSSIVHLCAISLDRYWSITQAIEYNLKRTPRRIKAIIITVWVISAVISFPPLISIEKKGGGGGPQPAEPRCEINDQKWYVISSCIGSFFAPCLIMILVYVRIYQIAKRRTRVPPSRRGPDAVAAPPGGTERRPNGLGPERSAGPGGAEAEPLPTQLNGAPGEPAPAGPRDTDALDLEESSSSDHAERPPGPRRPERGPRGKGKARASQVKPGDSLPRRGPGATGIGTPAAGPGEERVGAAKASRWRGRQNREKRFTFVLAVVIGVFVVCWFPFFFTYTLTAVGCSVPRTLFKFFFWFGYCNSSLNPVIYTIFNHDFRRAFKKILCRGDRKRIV
Description: PDSP Primary Binding target: ADRA2A - Compounds are tested at 10 uM concentration, plate are incubated at room temperature in the dark for 90 minutes. Reaction are stopped by vacuum filtration onto 0.3% polyethyleneimine soaked filter mats using Filtermate harvester. Scintilation cocktail is then melted onto microwave-dried filters on a hot plate and the radio activity is counted in Microbia counter.

[2] = molecular target: Beta-1 adrenergic receptor (Homo sapiens) (UniProt P08588)
Sequence of Beta-1 adrenergic receptor (Homo sapiens) (P08588 whole entry, looked up): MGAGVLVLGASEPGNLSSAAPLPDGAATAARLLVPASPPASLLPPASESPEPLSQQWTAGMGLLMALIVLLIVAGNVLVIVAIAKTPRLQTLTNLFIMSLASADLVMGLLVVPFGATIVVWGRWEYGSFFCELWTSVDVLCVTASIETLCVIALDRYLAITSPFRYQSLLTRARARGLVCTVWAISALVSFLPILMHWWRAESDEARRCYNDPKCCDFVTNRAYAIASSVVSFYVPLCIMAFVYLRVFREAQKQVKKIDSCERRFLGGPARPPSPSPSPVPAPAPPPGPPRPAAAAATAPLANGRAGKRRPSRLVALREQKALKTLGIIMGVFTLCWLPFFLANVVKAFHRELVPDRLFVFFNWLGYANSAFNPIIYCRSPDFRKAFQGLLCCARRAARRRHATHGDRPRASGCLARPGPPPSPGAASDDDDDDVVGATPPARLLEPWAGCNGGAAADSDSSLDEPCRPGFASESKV
Description: PDSP Primary Binding target: ADRB1 - Compounds are tested at 10 uM concentration, plate are incubated at room temperature in the dark for 90 minutes. Reaction are stopped by vacuum filtration onto 0.3% polyethyleneimine soaked filter mats using Filtermate harvester. Scintilation cocktail is then melted onto microwave-dried filters on a hot plate and the radio activity is counted in Microbia counter.

[3] = molecular target: Beta-2 adrenergic receptor (Homo sapiens) (UniProt P07550)
Sequence of Beta-2 adrenergic receptor (Homo sapiens) (P07550 whole entry, looked up): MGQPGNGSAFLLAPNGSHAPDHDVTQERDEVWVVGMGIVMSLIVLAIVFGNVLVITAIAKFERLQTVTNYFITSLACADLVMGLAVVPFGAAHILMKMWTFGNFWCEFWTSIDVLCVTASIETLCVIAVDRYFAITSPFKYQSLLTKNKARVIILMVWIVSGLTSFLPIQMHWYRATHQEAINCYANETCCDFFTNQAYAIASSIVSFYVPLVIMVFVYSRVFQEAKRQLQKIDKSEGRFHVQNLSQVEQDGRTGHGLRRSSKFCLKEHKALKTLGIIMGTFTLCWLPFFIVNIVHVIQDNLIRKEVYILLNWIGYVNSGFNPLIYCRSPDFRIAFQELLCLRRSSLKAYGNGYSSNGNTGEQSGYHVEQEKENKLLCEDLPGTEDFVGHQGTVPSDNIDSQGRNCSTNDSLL
Description: PDSP Primary Binding target: ADRB2 - Compounds are tested at 10 uM concentration, plate are incubated at room temperature in the dark for 90 minutes. Reaction are stopped by vacuum filtration onto 0.3% polyethyleneimine soaked filter mats using Filtermate harvester. Scintilation cocktail is then melted onto microwave-dried filters on a hot plate and the radio activity is counted in Microbia counter.

[4] = molecular target: T2, Muscarinic acetylcholine receptor M1 (Homo sapiens) (UniProt P11229)
T2 sequence (whole entry): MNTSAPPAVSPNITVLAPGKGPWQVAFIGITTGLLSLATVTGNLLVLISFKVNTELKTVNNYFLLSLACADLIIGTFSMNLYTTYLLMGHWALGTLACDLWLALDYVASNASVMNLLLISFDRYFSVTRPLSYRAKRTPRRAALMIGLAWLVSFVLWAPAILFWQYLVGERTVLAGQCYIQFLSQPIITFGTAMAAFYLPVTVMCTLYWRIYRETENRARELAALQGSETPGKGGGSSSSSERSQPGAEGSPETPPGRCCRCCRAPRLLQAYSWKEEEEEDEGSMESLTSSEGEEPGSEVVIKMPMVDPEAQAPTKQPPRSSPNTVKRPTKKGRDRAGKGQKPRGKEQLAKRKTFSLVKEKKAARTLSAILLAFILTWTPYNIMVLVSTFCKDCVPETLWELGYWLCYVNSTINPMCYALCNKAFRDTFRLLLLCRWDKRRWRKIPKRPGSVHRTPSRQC
Description: PDSP Primary Binding target: CHRM1 - Compounds are tested at 10 uM concentration, plate are incubated at room temperature in the dark for 90 minutes. Reaction are stopped by vacuum filtration onto 0.3% polyethyleneimine soaked filter mats using Filtermate harvester. Scintilation cocktail is then melted onto microwave-dried filters on a hot plate and the radio activity is counted in Microbia counter.

[5] = molecular target: T3, Muscarinic acetylcholine receptor M5 (Homo sapiens) (UniProt P08912)
T3 sequence (whole entry): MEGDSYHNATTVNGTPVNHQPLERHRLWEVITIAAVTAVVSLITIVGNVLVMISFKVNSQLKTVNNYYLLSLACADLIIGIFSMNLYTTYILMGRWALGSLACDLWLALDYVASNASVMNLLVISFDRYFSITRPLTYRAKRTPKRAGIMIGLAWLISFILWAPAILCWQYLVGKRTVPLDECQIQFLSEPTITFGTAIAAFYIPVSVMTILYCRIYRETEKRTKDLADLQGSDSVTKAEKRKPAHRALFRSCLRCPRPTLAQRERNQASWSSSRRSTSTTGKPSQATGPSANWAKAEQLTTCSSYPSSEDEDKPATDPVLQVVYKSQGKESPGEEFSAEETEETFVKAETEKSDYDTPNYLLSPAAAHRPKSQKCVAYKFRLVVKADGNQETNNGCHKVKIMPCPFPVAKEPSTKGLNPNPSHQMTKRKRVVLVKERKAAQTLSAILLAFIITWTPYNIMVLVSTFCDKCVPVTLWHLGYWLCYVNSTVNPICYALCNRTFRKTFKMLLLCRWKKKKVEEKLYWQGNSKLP
Description: PDSP Primary Binding target: CHRM5 - Compounds are tested at 10 uM concentration, plate are incubated at room temperature in the dark for 90 minutes. Reaction are stopped by vacuum filtration onto 0.3% polyethyleneimine soaked filter mats using Filtermate harvester. Scintilation cocktail is then melted onto microwave-dried filters on a hot plate and the radio activity is counted in Microbia counter.

[6] = molecular target: D(1A) dopamine receptor (Homo sapiens) (UniProt P21728)
Sequence of D(1A) dopamine receptor (Homo sapiens) (P21728 whole entry): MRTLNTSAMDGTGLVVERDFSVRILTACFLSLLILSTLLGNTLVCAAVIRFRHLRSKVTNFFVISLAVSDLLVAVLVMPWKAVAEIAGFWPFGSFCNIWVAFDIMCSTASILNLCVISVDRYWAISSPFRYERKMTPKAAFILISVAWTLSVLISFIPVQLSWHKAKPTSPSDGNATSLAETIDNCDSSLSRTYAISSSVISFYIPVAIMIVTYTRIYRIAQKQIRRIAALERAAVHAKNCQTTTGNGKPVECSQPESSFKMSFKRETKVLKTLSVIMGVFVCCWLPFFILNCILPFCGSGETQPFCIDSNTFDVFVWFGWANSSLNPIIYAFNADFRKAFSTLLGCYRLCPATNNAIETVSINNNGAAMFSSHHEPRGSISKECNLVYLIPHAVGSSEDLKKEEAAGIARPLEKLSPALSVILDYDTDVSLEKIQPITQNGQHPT
Description: PDSP Primary Binding target: DRD1 - Compounds are tested at 10 uM concentration, plate are incubated at room temperature in the dark for 90 minutes. Reaction are stopped by vacuum filtration onto 0.3% polyethyleneimine soaked filter mats using Filtermate harvester. Scintilation cocktail is then melted onto microwave-dried filters on a hot plate and the radio activity is counted in Microbia counter.

[7] = molecular target: D(3) dopamine receptor (Homo sapiens) (UniProt P35462)
Sequence of D(3) dopamine receptor (Homo sapiens) (P35462 whole entry): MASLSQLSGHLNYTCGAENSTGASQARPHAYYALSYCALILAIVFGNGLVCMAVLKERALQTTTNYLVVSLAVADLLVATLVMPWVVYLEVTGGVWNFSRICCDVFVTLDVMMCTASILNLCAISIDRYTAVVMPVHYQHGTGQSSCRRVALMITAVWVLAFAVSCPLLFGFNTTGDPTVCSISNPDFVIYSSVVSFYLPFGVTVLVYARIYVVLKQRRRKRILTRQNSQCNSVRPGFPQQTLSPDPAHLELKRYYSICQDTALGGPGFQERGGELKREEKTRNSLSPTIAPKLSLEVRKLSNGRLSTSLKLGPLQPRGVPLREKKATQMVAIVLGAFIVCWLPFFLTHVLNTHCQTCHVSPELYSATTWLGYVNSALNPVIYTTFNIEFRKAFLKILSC
Description: PDSP Primary Binding target: DRD3 - Compounds are tested at 10 uM concentration, plate are incubated at room temperature in the dark for 90 minutes. Reaction are stopped by vacuum filtration onto 0.3% polyethyleneimine soaked filter mats using Filtermate harvester. Scintilation cocktail is then melted onto microwave-dried filters on a hot plate and the radio activity is counted in Microbia counter.

[8] = molecular target: 5-hydroxytryptamine receptor 1D (Homo sapiens) (UniProt P28221)
Sequence of 5-hydroxytryptamine receptor 1D (Homo sapiens) (P28221 whole entry): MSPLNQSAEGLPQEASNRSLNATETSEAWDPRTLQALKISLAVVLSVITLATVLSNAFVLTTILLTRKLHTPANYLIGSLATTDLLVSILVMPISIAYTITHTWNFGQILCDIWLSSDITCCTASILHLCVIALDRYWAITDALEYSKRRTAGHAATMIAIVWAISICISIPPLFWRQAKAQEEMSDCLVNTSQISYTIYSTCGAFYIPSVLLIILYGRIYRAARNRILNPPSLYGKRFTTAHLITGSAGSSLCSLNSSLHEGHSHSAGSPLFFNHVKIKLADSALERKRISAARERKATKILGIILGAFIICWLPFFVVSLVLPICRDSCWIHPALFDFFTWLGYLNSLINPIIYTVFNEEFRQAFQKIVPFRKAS
Description: PDSP Primary Binding target: HTR1D - Compounds are tested at 10 uM concentration, plate are incubated at room temperature in the dark for 90 minutes. Reaction are stopped by vacuum filtration onto 0.3% polyethyleneimine soaked filter mats using Filtermate harvester. Scintilation cocktail is then melted onto microwave-dried filters on a hot plate and the radio activity is counted in Microbia counter.

[9] = molecular target: 5-hydroxytryptamine receptor 2A (Homo sapiens) (UniProt P28223)
Sequence of 5-hydroxytryptamine receptor 2A (Homo sapiens) (P28223 whole entry): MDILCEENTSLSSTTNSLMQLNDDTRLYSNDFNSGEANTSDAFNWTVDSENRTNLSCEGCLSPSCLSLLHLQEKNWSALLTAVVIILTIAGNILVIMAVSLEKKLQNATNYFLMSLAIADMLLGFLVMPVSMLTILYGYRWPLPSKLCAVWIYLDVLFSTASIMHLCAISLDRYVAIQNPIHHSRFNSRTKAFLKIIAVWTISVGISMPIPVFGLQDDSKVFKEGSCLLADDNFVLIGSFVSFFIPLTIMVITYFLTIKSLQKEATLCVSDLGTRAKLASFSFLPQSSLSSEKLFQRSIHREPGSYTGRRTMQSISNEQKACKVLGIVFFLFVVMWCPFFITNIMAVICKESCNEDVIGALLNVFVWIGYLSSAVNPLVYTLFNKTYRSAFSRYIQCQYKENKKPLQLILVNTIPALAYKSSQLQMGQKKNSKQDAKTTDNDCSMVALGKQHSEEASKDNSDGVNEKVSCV
Description: PDSP Primary Binding target: HTR2A - Compounds are tested at 10 uM concentration, plate are incubated at room temperature in the dark for 90 minutes. Reaction are stopped by vacuum filtration onto 0.3% polyethyleneimine soaked filter mats using Filtermate harvester. Scintilation cocktail is then melted onto microwave-dried filters on a hot plate and the radio activity is counted in Microbia counter.

[10] = molecular target: 5-hydroxytryptamine receptor 2B (Homo sapiens) (UniProt P41595)
Sequence of 5-hydroxytryptamine receptor 2B (Homo sapiens) (P41595 whole entry): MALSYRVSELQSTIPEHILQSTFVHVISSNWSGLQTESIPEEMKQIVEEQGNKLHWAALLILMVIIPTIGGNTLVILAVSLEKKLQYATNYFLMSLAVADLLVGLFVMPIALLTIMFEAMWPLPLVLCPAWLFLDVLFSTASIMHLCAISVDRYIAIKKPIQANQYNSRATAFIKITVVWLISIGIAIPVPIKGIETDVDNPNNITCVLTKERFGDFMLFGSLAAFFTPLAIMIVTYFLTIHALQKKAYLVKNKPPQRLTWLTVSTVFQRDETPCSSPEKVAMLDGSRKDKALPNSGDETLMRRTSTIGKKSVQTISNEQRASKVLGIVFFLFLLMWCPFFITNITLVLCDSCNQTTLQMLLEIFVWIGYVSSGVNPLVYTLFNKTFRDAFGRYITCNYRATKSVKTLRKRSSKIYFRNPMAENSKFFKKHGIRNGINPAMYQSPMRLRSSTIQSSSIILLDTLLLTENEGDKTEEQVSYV
Description: PDSP Primary Binding target: HTR2B - Compounds are tested at 10 uM concentration, plate are incubated at room temperature in the dark for 90 minutes. Reaction are stopped by vacuum filtration onto 0.3% polyethyleneimine soaked filter mats using Filtermate harvester. Scintilation cocktail is then melted onto microwave-dried filters on a hot plate and the radio activity is counted in Microbia counter.

[11] = molecular target: T4, 5-hydroxytryptamine receptor 3A (Homo sapiens) (UniProt P46098)
T4 sequence (whole entry): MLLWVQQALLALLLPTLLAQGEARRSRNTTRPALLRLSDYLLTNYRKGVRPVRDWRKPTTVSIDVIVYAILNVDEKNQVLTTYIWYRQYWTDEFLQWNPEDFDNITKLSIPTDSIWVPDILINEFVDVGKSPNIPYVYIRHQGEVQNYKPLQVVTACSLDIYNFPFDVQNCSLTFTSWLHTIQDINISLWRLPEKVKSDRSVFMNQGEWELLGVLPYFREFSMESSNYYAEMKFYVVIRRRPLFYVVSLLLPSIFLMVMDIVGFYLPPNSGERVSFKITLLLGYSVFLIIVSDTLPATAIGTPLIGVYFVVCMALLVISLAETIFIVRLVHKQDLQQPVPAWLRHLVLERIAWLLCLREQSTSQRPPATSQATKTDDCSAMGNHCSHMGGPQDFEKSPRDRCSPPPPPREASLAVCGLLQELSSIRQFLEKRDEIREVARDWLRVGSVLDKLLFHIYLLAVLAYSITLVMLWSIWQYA
Description: PDSP Primary Binding target: HTR3A - Compounds are tested at 10 uM concentration, plate are incubated at room temperature in the dark for 90 minutes. Reaction are stopped by vacuum filtration onto 0.3% polyethyleneimine soaked filter mats using Filtermate harvester. Scintilation cocktail is then melted onto microwave-dried filters on a hot plate and the radio activity is counted in Microbia counter.

[12] = molecular target: 5-hydroxytryptamine receptor 6 (Homo sapiens) (UniProt P50406)
Sequence of 5-hydroxytryptamine receptor 6 (Homo sapiens) (P50406 whole entry): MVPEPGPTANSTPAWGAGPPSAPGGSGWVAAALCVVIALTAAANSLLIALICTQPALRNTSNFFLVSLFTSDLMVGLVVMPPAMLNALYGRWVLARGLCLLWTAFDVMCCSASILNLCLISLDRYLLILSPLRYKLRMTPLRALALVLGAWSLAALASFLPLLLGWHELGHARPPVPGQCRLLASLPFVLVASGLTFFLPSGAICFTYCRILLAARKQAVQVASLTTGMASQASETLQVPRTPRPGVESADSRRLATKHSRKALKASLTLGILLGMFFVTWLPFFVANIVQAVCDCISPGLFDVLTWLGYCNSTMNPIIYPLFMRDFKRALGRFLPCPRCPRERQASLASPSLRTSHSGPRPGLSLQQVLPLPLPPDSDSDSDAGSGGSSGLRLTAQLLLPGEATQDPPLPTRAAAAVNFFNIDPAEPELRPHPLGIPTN
Description: PDSP Primary Binding target: HTR6 - Compounds are tested at 10 uM concentration, plate are incubated at room temperature in the dark for 90 minutes. Reaction are stopped by vacuum filtration onto 0.3% polyethyleneimine soaked filter mats using Filtermate harvester. Scintilation cocktail is then melted onto microwave-dried filters on a hot plate and the radio activity is counted in Microbia counter.

[13] = molecular target: Mu-type opioid receptor (Homo sapiens) (UniProt P35372)
Sequence of Mu-type opioid receptor (Homo sapiens) (P35372 whole entry): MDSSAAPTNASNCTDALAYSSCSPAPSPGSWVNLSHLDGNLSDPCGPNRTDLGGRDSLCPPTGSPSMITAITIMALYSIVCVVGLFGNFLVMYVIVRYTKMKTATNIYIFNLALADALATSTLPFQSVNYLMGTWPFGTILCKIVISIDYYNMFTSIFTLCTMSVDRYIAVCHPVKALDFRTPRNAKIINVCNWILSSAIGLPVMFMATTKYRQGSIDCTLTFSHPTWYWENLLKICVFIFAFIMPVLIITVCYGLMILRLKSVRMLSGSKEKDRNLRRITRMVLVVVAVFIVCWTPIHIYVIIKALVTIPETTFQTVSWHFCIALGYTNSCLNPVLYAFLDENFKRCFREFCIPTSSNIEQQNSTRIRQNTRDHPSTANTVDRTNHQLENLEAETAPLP
Description: PDSP Primary Binding target: OPRM1 - Compounds are tested at 10 uM concentration, plate are incubated at room temperature in the dark for 90 minutes. Reaction are stopped by vacuum filtration onto 0.3% polyethyleneimine soaked filter mats using Filtermate harvester. Scintilation cocktail is then melted onto microwave-dried filters on a hot plate and the radio activity is counted in Microbia counter.

[14] = molecular target: Sigma intracellular receptor 2 (Homo sapiens) (UniProt Q5BJF2)
Sequence of Sigma intracellular receptor 2 (Homo sapiens) (Q5BJF2 whole entry): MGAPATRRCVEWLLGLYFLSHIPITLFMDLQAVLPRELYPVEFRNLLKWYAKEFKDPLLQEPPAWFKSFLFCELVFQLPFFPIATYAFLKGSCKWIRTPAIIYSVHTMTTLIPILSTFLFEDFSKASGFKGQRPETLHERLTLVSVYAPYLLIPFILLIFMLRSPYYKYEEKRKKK
Description: PDSP Primary Binding target: TMEM97 - Compounds are tested at 10 uM concentration, plate are incubated at room temperature in the dark for 90 minutes. Reaction are stopped by vacuum filtration onto 0.3% polyethyleneimine soaked filter mats using Filtermate harvester. Scintilation cocktail is then melted onto microwave-dried filters on a hot plate and the radio activity is counted in Microbia counter.

[15] = molecular target: 5-hydroxytryptamine receptor 1E (Homo sapiens) (UniProt P28566)
Sequence of 5-hydroxytryptamine receptor 1E (Homo sapiens) (P28566 whole entry): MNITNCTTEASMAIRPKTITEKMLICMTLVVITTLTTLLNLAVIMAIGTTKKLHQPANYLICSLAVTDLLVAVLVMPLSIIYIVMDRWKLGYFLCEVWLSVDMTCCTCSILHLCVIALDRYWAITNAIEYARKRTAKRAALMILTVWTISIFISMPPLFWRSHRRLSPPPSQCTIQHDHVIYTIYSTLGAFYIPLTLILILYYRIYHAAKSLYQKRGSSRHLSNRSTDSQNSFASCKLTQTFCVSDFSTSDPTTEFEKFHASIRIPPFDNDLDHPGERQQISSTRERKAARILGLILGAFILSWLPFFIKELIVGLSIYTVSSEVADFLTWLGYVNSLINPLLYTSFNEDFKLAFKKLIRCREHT
Description: PDSP Primary Binding target: HTR1E - Compounds are tested at 10 uM concentration, plate are incubated at room temperature in the dark for 90 minutes. Reaction are stopped by vacuum filtration onto 0.3% polyethyleneimine soaked filter mats using Filtermate harvester. Scintilation cocktail is then melted onto microwave-dried filters on a hot plate and the radio activity is counted in Microbia counter.

## CCN(CC)CCCCC1CCN(CC(=O)N2c3ccccc3C(=O)Nc3cccnc32)CC1
[1]
  inhibition: 12.9%
[2]
  inhibition: 4.03%
[3]
  inhibition: 5.55%
[4]
  inhibition: 89.1%
[5]
  inhibition: 72.4%
[6]
  inhibition: 102%
[7]
  inhibition: 13.8%
[8]
  inhibition: 33.2%
[9]
  inhibition: 9.83%
[10]
  inhibition: 13.9%
[11]
  inhibition: 3.5%
[12]
  inhibition: -7.42%
[13]
  inhibition: 10.4%
[14]
  inhibition: 82.1%

## CCCCN1CCC(COC(=O)c2cc(Cl)c(N)c3c2OCCO3)CC1
[1]
  inhibition: 66.1%
[2]
  inhibition: 10.7%
[3]
  inhibition: 14.1%
[5]
  inhibition: -7.37%
[6]
  inhibition: 3.42%
[7]
  inhibition: 58.8%
[8]
  inhibition: 54.6%
[15]
  inhibition: 22.6%
[9]
  inhibition: 62.2%
[10]
  inhibition: 68.3%
[11]
  inhibition: 72.4%
[12]
  inhibition: 20.1%
[13]
  inhibition: 9.58%
[14]
  inhibition: 96.8%

## Cc1nc(-c2ccc(-c3ccc(C(=O)N4CCc5cc6c(cc54)C4(CCN(C)CC4)CO6)cc3)c(C)c2)no1
[1]
  inhibition: 73%
[2]
  inhibition: -1.95%
[3]
  inhibition: 10.4%
[4]
  inhibition: 66.4%
[5]
  inhibition: 93.6%
[6]
  inhibition: 53.5%
[7]
  inhibition: 18.8%
[8]
  inhibition: 90.9%
[15]
  inhibition: 0.78%
[9]
  inhibition: 67.6%
[10]
  inhibition: 88.9%
[11]
  inhibition: 43.9%
[12]
  inhibition: -6.79%
[13]
  inhibition: -2.77%
[14]
  inhibition: 95.4%

## COc1ccc(C2(O)OC(=O)C(c3ccc4c(c3)OCO4)=C2Cc2cc(OC)c(OC)c(OC)c2)cc1 (stereo not drawn)
[1]
  inhibition: 4.57%
[2]
  inhibition: -2.63%
[4]
  inhibition: -8.77%
[5]
  inhibition: 28.8%
[6]
  inhibition: -7.61%
[7]
  inhibition: -2.35%
[8]
  inhibition: 21.7%
[15]
  inhibition: -4.29%
[9]
  inhibition: 12.4%
[12]
  inhibition: -2.9%
[13]
  inhibition: -4.54%

## OC1(c2ccc(Cl)cc2)CCN(Cc2c[nH]c3ccccc23)CC1
[1]
  inhibition: 76.1%
[2]
  inhibition: 38.7%
[3]
  inhibition: -1.99%
[5]
  inhibition: 70.8%
[6]
  inhibition: 70.3%
[7]
  inhibition: 88.8%
[8]
  inhibition: 46.1%
[9]
  inhibition: 66.9%
[10]
  inhibition: 73.8%
[11]
  inhibition: -7.87%
[12]
  inhibition: -7.57%
[13]
  inhibition: 65%
[14]
  inhibition: 97.8%

## CCCn1c(=O)c2[nH]c(-c3cnn(Cc4cccc(C(F)(F)F)c4)c3)nc2n(CC)c1=O
[1]
  inhibition: 10.9%
[2]
  inhibition: -6.47%
[3]
  inhibition: -2.75%
[4]
  inhibition: -6.12%
[5]
  inhibition: -2.1%
[6]
  inhibition: 5.66%
[8]
  inhibition: 10.2%
[15]
  inhibition: -4%
[10]
  inhibition: 35.7%
[11]
  inhibition: -4.02%
[13]
  inhibition: -6.55%
[14]
  inhibition: 18%

## NC[C@@H]1O[C@H](C23CC4CC(CC(C4)C2)C3)Cc2c1ccc(O)c2O
[1]
  inhibition: 85.1%
[2]
  inhibition: -6.91%
[3]
  inhibition: 29.6%
[4]
  inhibition: -5.8%
[5]
  inhibition: 29.6%
[6]
  inhibition: 100%
[7]
  inhibition: 81%
[8]
  inhibition: 43.5%
[15]
  inhibition: 22.3%
[9]
  inhibition: 3.87%
[10]
  inhibition: 48.1%
[11]
  inhibition: 39.6%
[12]
  inhibition: 19.1%
[14]
  inhibition: 81.7%

## Cc1cccc([C@H](C)c2c[nH]cn2)c1C
[1]
  inhibition: 104%
[2]
  inhibition: 3.18%
[3]
  inhibition: 20.7%
[5]
  inhibition: 3.92%
[6]
  inhibition: -3.69%
[7]
  inhibition: 21.5%
[8]
  inhibition: 145%
[15]
  inhibition: -0.76%
[9]
  inhibition: 26.8%
[10]
  inhibition: 51.3%
[11]
  inhibition: 13.3%
[12]
  inhibition: 1.41%
[14]
  inhibition: 37.8%

## O=C(Cc1ccc(Cl)c(Cl)c1)N1CCCC[C@H]1CN1CCCC1
[1]
  inhibition: 30.3%
[2]
  inhibition: -3.57%
[3]
  inhibition: 7.92%
[4]
  inhibition: 9.74%
[7]
  inhibition: 18.5%
[8]
  inhibition: 14.8%
[15]
  inhibition: 1.08%
[9]
  inhibition: 6.03%
[10]
  inhibition: 35.7%
[11]
  inhibition: 5.92%
[12]
  inhibition: -5.65%
[13]
  inhibition: 49.6%
[14]
  inhibition: 92.3%

## CCCCc1nc(Cl)c(CO)n1Cc1ccc(-c2ccccc2-c2nnn[nH]2)cc1
[1]
  inhibition: 6.2%
[2]
  inhibition: 8.7%
[5]
  inhibition: 0.95%
[6]
  inhibition: 10.3%
[7]
  inhibition: 46.3%
[8]
  inhibition: 43.4%
[15]
  inhibition: 7.06%
[10]
  inhibition: 37.1%
[11]
  inhibition: -6.45%
[12]
  inhibition: 17.6%
[13]
  inhibition: -1.17%
[14]
  inhibition: 27.4%

## O=C(c1cc2c(cc1F)OC(c1ccc(F)cc1)(c1ccc(Cl)cc1Cl)O2)N1CCOCC1 (stereo not drawn)
[1]
  inhibition: 18.1%
[2]
  inhibition: 8.99%
[3]
  inhibition: 5.79%
[5]
  inhibition: -6.56%
[6]
  inhibition: 48%
[7]
  inhibition: 27.4%
[8]
  inhibition: 20.9%
[15]
  inhibition: 19.9%
[9]
  inhibition: 57.3%
[10]
  inhibition: 85.6%
[11]
  inhibition: 1.36%
[12]
  inhibition: -8.59%
[13]
  inhibition: 52.7%
[14]
  inhibition: 72.4%

## Cc1ccccc1C(=O)Nc1ccc(C(=O)N2CCCC(O)c3cc(Cl)ccc32)c(C)c1 (stereo not drawn)
[1]
  inhibition: 33.8%
[2]
  inhibition: 12.2%
[4]
  inhibition: -6.43%
[5]
  inhibition: 4.97%
[6]
  inhibition: 9.57%
[7]
  inhibition: 33%
[8]
  inhibition: 88.5%
[15]
  inhibition: 0.51%
[9]
  inhibition: 12.9%
[10]
  inhibition: 74.7%
[11]
  inhibition: -5.18%
[12]
  inhibition: 1.21%
[13]
  inhibition: 53.2%
[14]
  inhibition: 91.8%

## COc1cccc([C@H](O)C2CCN(CCc3ccc(F)cc3)CC2)c1OC
[1]
  inhibition: 33.1%
[2]
  inhibition: 32.2%
[3]
  inhibition: 5.48%
[5]
  inhibition: -8.31%
[6]
  inhibition: 63.9%
[7]
  inhibition: 9.18%
[8]
  inhibition: 73.8%
[15]
  inhibition: -0.41%
[10]
  inhibition: 89.1%
[11]
  inhibition: 9.53%
[12]
  inhibition: 5.14%
[13]
  inhibition: 8.06%
[14]
  inhibition: 95.9%

## CN(C)C(=O)C(CCN1CCC(O)(c2ccc(Cl)cc2)CC1)(c1ccccc1)c1ccccc1
[1]
  inhibition: 47.1%
[2]
  inhibition: -4.2%
[3]
  inhibition: 44.6%
[5]
  inhibition: 2.95%
[6]
  inhibition: 2.24%
[7]
  inhibition: 42.1%
[8]
  inhibition: 55.2%
[15]
  inhibition: 18.4%
[10]
  inhibition: 83.3%
[12]
  inhibition: 14.9%
[14]
  inhibition: 95.5%

Source: ChEMBL document CHEMBL5442219
